Series [1] concerns the target T1, Peroxisome proliferator-activated receptor gamma (Homo sapiens) (UniProt P37231).
T1 sequence (whole entry): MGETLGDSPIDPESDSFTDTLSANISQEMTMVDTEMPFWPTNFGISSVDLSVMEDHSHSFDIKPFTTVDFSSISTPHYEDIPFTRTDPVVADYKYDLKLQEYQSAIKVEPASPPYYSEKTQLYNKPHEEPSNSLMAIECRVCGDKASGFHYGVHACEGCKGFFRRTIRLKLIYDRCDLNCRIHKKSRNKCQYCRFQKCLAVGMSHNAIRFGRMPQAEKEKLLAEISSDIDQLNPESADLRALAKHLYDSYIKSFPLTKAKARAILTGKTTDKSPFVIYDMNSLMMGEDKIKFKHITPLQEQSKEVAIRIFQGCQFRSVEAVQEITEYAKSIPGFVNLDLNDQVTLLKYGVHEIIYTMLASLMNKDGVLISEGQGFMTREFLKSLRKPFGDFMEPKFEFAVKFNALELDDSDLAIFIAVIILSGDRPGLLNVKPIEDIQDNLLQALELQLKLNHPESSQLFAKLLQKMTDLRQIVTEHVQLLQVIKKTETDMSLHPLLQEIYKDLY
Description: Agonist activity at PPAR-gamma (unknown origin) expressed in CV-1 cells co-transfected with tk-PPRE-luciferase vector at 10 uM after 24 hrs by transactivation assay relative to rosiglitazone. Type of series: cell-based.

A short description of series [2]: Retention time of the compound by HPLC analysis. It is filed as physicochemical.
In series [3] the target is T2, Peroxisome proliferator-activated receptor alpha (Homo sapiens) (UniProt Q07869).
T2 sequence (whole entry): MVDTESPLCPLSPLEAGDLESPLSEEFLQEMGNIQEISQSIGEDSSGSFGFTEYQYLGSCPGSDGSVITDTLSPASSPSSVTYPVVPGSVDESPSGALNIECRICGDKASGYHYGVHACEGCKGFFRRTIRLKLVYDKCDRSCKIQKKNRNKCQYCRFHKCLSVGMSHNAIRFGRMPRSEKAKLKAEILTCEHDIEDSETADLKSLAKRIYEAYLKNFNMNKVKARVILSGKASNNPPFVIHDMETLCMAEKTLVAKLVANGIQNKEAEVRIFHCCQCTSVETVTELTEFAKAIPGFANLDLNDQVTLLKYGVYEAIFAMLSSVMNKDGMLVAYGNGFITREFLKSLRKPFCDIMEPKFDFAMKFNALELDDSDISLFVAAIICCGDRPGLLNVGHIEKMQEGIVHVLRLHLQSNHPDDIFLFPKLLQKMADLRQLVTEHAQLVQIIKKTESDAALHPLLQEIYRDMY
In words: Agonist activity at PPAR-alpha (unknown origin) expressed in CV-1 cells co-transfected with tk-PPRE-luciferase vector at 10 uM after 24 hrs by transactivation assay relative to GW7647. Type of series: cell-based.

Series [4] has as its target T3, Peroxisome proliferator-activated receptor delta (Homo sapiens) (UniProt Q03181).
T3 sequence (whole entry): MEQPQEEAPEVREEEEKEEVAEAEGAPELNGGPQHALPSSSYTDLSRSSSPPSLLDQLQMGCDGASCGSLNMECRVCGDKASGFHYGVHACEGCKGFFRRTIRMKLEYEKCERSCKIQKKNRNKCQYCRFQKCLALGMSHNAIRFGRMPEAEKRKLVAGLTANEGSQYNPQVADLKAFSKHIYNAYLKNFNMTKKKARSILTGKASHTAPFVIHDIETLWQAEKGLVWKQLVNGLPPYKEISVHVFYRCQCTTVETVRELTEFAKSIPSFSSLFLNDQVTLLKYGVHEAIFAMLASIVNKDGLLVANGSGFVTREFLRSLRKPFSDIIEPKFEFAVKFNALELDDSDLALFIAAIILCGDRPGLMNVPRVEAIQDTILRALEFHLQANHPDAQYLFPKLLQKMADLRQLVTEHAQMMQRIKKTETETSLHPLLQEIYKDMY
In words: Agonist activity at PPAR-delta (unknown origin) expressed in HEK293t cells co-transfected with tk-PPRE-luciferase vector at 10 uM after 24 hrs by transactivation assay relative to GW0742. Particulars: HEK-293T. Type of series: cell-based.

Calls of active or inactive are those of the source. No cut-off for these calls is given here.

`O=C(O)Cc1c[nH]c2ccc(OCCCOc3cccc(OCc4ccc(F)cc4)c3)cc12`: the Emax in series [1] was found to be 66.9%; in series [3], 25.8%; in series [4], 32%. This compound also returned a Retention_time in series [2] of 7.106 min.

As to `O=C(O)Cc1c[nH]c2ccc(OCCOc3cccc(OCc4ccc(C(F)(F)F)cc4)c3)cc12`, the Emax in series [1] is 103%; in series [3], 43%; in series [4] it was 83%. In series [2], this compound came in with a Retention_time of 7.193 min.

Regarding `O=C(O)Cc1cn(Cc2ccccc2)c2ccc(OCCCOc3cccc(Oc4ccccc4)c3)cc12`, the Emax in series [1] was 71.2%; in series [3], 13.9%; in series [4], 46.3%. In series [2], this compound displayed a Retention_time of 18.216 min.

Turning to `Cc1ccc(COc2ccccc2OCCCOc2ccc3[nH]cc(CC(=O)O)c3c2)cc1`, the Emax in series [1] was determined as 73.4%; in series [3], 41.2%; in series [4], 35.2%. In addition, the Retention_time in series [2] turned out to be 7.257 min.

On to `Cc1ccc(COc2ccccc2OCCCOc2ccc3c(CC(=O)O)c[nH]c3c2)cc1`, for which the figures for the Emax in series [1], in series [3] and in series [4] were 19.2%, 10.9% and 64.6%, respectively. This compound had a Retention_time in series [2] of 7.422 min.

As to `CC(C)=CCn1cc(CC(=O)O)c2cc(OCCCOc3cccc(OCc4ccc(Cl)cc4)c3)ccc21`, the Emax in series [1] amounted to 120%; in series [3], 37.9%; in series [4], 65.2%. Moreover, the Retention_time in series [2] came out at 30.169 min.

For the compound `O=C(O)Cc1cn(Cc2ccccc2)c2ccc(OCCCOc3cccc(OCc4ccc(F)cc4)c3)cc12`, the values for the Emax in series [1], in series [3] and in series [4] were 77.7%, 16.5% and 59.5%, respectively. This compound also displayed a Retention_time in series [2] of 16.467 min.

For `O=C(O)Cc1c[nH]c2ccc(OCCCOc3cccc(OCc4ccc(Cl)cc4Cl)c3)cc12`, the Emax in series [1] was determined as 102%; in series [3] it was 59.5%; in series [4] it was 85.3%.

On to `O=C(O)Cc1cn(Cc2ccccc2)c2ccc(OCCOc3cccc(OCc4ccc(Cl)cc4)c3)cc12`, for which the Emax in series [1] came out at 81.2%; in series [3], 40.7%; in series [4], 106%. The compound also yielded a Retention_time in series [2] of 17.1 min.

As to `O=C(O)Cc1cn(Cc2ccccc2)c2ccc(OCCCOc3ccccc3OCc3ccc(Cl)cc3)cc12`, the values for the Emax in series [1], in series [3] and in series [4] were 89.2%, 27.1% and 74.9%, respectively. The same compound showed a Retention_time in series [2] of 15.313 min.

Take `O=C(O)Cc1c[nH]c2ccc(OCCCOc3ccccc3OCc3ccc(Cl)cc3)cc12`: the Emax stood at 16.1% in series [1] and 21% in series [3]. This compound had a Retention_time in series [2] of 7.547 min. For the same compound, in series [4], the Emax entry was “inactive”.

As to `O=C(O)Cc1cn(Cc2ccccc2)c2ccc(OCCCOc3ccc(OCc4ccc(Cl)cc4)cc3)cc12`, the Emax amounted to 83.7% in series [1], 19% in series [3] and 94.7% in series [4]. In series [2], this compound gave a Retention_time of 22.989 min.

As to `O=C(O)Cc1cn(Cc2ccccc2)c2ccc(OCCOc3cccc(Cl)c3)cc12`, the Emax was found to be 23.6% in series [1], 15.3% in series [3] and 13.7% in series [4]. The same compound showed a Retention_time in series [2] of 8.911 min.

As for `O=C(O)Cc1cn(Cc2ccccc2)c2ccc(OCCCOc3cccc(Oc4ccc(Cl)cc4)c3)cc12`, the Emax in series [1] amounted to 99.8%; in series [3] it was 34%; in series [4], 88.8%. In series [2], this compound came in with a Retention_time of 25.456 min.

On to `Cc1ccc(COc2ccc(OCCCOc3ccc4c(c3)c(CC(=O)O)cn4Cc3ccccc3)cc2)cc1`, for which the Emax in series [1] worked out at 92.6%; in series [3], 18.9%; in series [4] it was 93.6%. The compound further gave a Retention_time in series [2] of 21.33 min.

For `O=C(O)Cc1c[nH]c2cc(OCCCOc3cccc(OCc4ccc(Cl)cc4)c3)ccc12`, the figures for the Emax in series [1], in series [3] and in series [4] were 81.8%, 33% and 32.8%, respectively. Also, in series [2], the Retention_time is 8.836 min.

Consider `Cc1ccc(Oc2cccc(OCCCOc3ccc4c(c3)c(CC(=O)O)cn4Cc3ccccc3)c2)cc1`, for which the Emax in series [1] amounted to 119%; in series [3], 33.3%; in series [4], 69.1%. Moreover, the Retention_time in series [2] turned out to be 23.472 min.

As for `O=C(O)Cc1c[nH]c2ccc(OCCOc3cccc(Cl)c3)cc12`, the Emax in series [1] was found to be 16.8%; in series [3] it was 15.5%; in series [4], 16.2%. The compound further displayed a Retention_time in series [2] of 4.608 min.

Turning to `O=C(O)Cc1cn(Cc2ccccc2)c2cc(OCCCOc3cccc(OCc4ccc(Cl)cc4)c3)ccc12`, the Emax is 122% in series [1], 34.8% in series [3] and 84.8% in series [4]. In addition, the Retention_time in series [2] was found to be 18.802 min.

Consider `Cc1ccc(COc2cccc(OCCCOc3ccc4c(c3)c(CC(=O)O)cn4Cc3ccccc3)c2)cc1`, for which the results for the Emax in series [1], in series [3] and in series [4] were 109%, 31.4% and 83%, respectively. In series [2], this compound registered a Retention_time of 21.719 min.

As for `O=C(O)Cc1c[nH]c2ccc(OCCCOc3cccc(OCc4ccc(Cl)cc4)c3)cc12`, the figures for the Emax in series [1], in series [3] and in series [4] were 104%, 56.7% and 63.7%, respectively. This compound also had a Retention_time in series [2] of 9.64 min.

As to `Cc1ccc(Oc2cccc(OCCCOc3ccc4[nH]cc(CC(=O)O)c4c3)c2)cc1`, the Emax in series [1] was found to be 145%; in series [3], 60.6%; in series [4], 40.6%. Besides, in series [2], the Retention_time was found to be 9.409 min.

As to `O=C(O)Cc1cn(Cc2ccccc2)c2ccc(OCCCOc3cccc(OCc4ccccc4)c3)cc12`, the Emax in series [1] was found to be 94.6%; in series [3] it was 30.4%; in series [4], 95.5%. Further, the Retention_time in series [2] worked out at 14.199 min.

With `Cc1ccc(COc2cccc(OCCOc3ccc4[nH]cc(CC(=O)O)c4c3)c2)cc1`, the Emax worked out at 114% in series [1], 66.7% in series [3] and 76.6% in series [4]. In addition, in series [2], the Retention_time amounted to 7.375 min.

With `Cc1ccc(COc2ccccc2OCCCOc2ccc3c(c2)c(CC(=O)O)cn3Cc2ccccc2)cc1`, the values for the Emax in series [1], in series [3] and in series [4] were 75.1%, 26.7% and 68.9%, respectively. In series [2], this compound registered a Retention_time of 14.49 min.

Consider `CCCn1cc(CC(=O)O)c2cc(OCCCOc3cccc(OCc4ccc(Cl)cc4)c3)ccc21`, for which the values for the Emax in series [1], in series [3] and in series [4] were 110%, 66.8% and 77.1%, respectively. Further, in series [2], the Retention_time is 21.212 min.

Turning to `C=CCn1cc(CC(=O)O)c2cc(OCCCOc3cccc(OCc4ccc(Cl)cc4)c3)ccc21`, the figures for the Emax in series [1], in series [3] and in series [4] were 104%, 35.8% and 71.1%, respectively. The same compound registered a Retention_time in series [2] of 15.057 min.

Turning to `O=C(O)Cc1cn(Cc2ccccc2)c2ccc(OCCOc3cccc(OCc4ccc(C(F)(F)F)cc4)c3)cc12`, the Emax in series [1] stood at 85.7%; in series [3], 23.4%; in series [4], 73.9%. In series [2], the Retention_time was determined as 18.375 min.

For `COc1ccc(Oc2cccc(OCCCOc3ccc4c(c3)c(CC(=O)O)cn4Cc3ccccc3)c2)cc1`, the Emax in series [1] was 71.1%; in series [3] it was 22.3%; in series [4], 59.5%. Besides, in series [2], the Retention_time was determined as 7.257 min.

As to `Cc1cccc(OCCOc2ccc3[nH]cc(CC(=O)O)c3c2)c1`, the Emax in series [1] came out at 31.3%; in series [3] it was 21.8%; in series [4], 27.9%. In series [2], this compound had a Retention_time of 4.444 min.

Take `O=C(O)Cc1cn(Cc2ccccc2)c2ccc(OCCCOc3cccc(OCc4ccc(Cl)cc4Cl)c3)cc12`: the Emax in series [1] came to 102%; in series [3], 18.7%; in series [4], 44.2%.

The values are drawn from ChEMBL document CHEMBL3596146, “Design, synthesis, and biological evaluation of a series of alkoxy-3-indolylacetic acids as peroxisome proliferator-activated receptor γ/δ agonists” (Bioorg Med Chem, 2015).
